According to doi:10.1101/2020.07.29.226878v1 (bioRxiv, 2020):

Key:
[1] = test system: sheep blowflies (Lucilia cuprina); experiment: In vivo insecticidal assay, intrathoracic injection into sheep blowflies
Acheta domesticus = details: tested in Acheta domesticus; cited from earlier work

Row | Substance | LD50 in blow fly assays (abstract) [1] [nM] | LD50 at 24 h (Acheta domesticus) [nmol/g]
1 | Δ-pseudomyrmecitoxin-Pp1a [Δ-PSDTX-Pp1a] | 3 | 
2 | ponericin G1 |  | 25.7
